Measured values as given in US12077503B2, “Substituted cyclic amides and their use as herbicides” (FMC CORPORATION, priority 2015, dated 2024).

Columns and labels:
Type in all cases: in vivo
[1] = test system: barnyardgrass (Echinochloa crus-galli); assay: Test G Pre-Emergence Protocol; settings: Echinochloa crus-galli, pre-emergence, 312 h, evaluated after 13 days; for pest or weed control at 15.625 g/ha: 15.625 g ai/ha, read-out: Barnyard grass damage rating (100=total damage to plant; 0=no damage to plant); for pest or weed control at 62.5 g/ha: 62.5 g ai/ha, 100=total damage to plant, 0=no damage to plant, read-out: plant damage rating, Barnyardgrass; for pest or weed control at 250 g/ha: 250 g ai/ha, read-out: Barnyardgrass damage rating (100=total damage to plant; 0=no damage to plant)
Summary of the method: (§1)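 Herbicidal effect was rated 13 days post-application on a scale where 100 equals total damage. Spraying took place the day after sowing, using 15.625, 62.5 or 250 g/ha of compound in a 50:50 acetone/water solution with 0.5% Tween 20.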

[2] = test system: corn (Zea mays); assay: Test G Pre-Emergence Protocol; settings: Zea mays, pre-emergence, 312 h, evaluated after 13 days; for plant injury at 15.625 g/ha: 15.625 g ai/ha; for plant injury at 15.625 g/ha / plant injury at 250 g/ha: read-out: Corn damage rating (100=total damage to plant; 0=no damage to plant); for plant injury at 62.5 g/ha: 62.5 g ai/ha, 100=total damage to plant, 0=no damage to plant, read-out: plant damage rating, Corn; for plant injury at 250 g/ha: 250 g ai/ha
Summary of the method: as §1

[3] = test system: giant foxtail (Setaria faberi); assay: Test G Pre-Emergence Protocol; settings: Setaria faberi, pre-emergence, 312 h, evaluated after 13 days; for pest or weed control at 15.625 g/ha: 15.625 g ai/ha; for pest or weed control at 15.625 g/ha / pest or weed control at 250 g/ha: read-out: Foxtail, Giant damage rating (100=total damage to plant; 0=no damage to plant); for pest or weed control at 62.5 g/ha: 62.5 g ai/ha, 100=total damage to plant, 0=no damage to plant, read-out: plant damage rating, Foxtail, Giant; for pest or weed control at 250 g/ha: 250 g ai/ha
Summary of the method: as §1

[4] = test system: ivy-leaved morning glory (Ipomoea hederacea); assay: Test G Pre-Emergence Protocol; settings: Ipomoea, pre-emergence, 312 h, evaluated after 13 days; for pest or weed control at 15.625 g/ha: 15.625 g ai/ha, read-out: Morning-glory, Ivy-leaved damage rating (100=total damage to plant; 0=no damage to plant); for pest or weed control at 62.5 g/ha: 62.5 g ai/ha, 100=total damage to plant, 0=no damage to plant, read-out: plant damage rating, Morningglory, Ivy-leaved; for pest or weed control at 250 g/ha: 250 g ai/ha, read-out: Morningglory, Ivy-leaved damage rating (100=total damage to plant; 0=no damage to plant)
Summary of the method: as §1

[5] = test system: redroot pigweed (Amaranthus retroflexus); assay: Test G Pre-Emergence Protocol; settings: Amaranthus retroflexus, pre-emergence, 312 h, evaluated after 13 days; for pest or weed control at 15.625 g/ha: 15.625 g ai/ha; for pest or weed control at 15.625 g/ha / pest or weed control at 250 g/ha: read-out: Pigweed, Redroot damage rating (100=total damage to plant; 0=no damage to plant); for pest or weed control at 62.5 g/ha: 62.5 g ai/ha, 100=total damage to plant, 0=no damage to plant, read-out: plant damage rating, Pigweed, Redroot; for pest or weed control at 250 g/ha: 250 g ai/ha
Summary of the method: as §1

[6] = test system: velvetleaf (Abutilon theophrasti); assay: Test G Pre-Emergence Protocol; settings: Abutilon theophrasti, pre-emergence, 312 h, evaluated after 13 days; for pest or weed control at 15.625 g/ha: 15.625 g ai/ha; for pest or weed control at 15.625 g/ha / pest or weed control at 250 g/ha: read-out: Velvetleaf damage rating (100=total damage to plant; 0=no damage to plant); for pest or weed control at 62.5 g/ha: 62.5 g ai/ha, 100=total damage to plant, 0=no damage to plant, read-out: plant damage rating, Velvetleaf; for pest or weed control at 250 g/ha: 250 g ai/ha
Summary of the method: as §1

[7] = test system: barnyardgrass (Echinochloa crus-galli); assay: Test G Post-Emergence Protocol; settings: Echinochloa crus-galli, post-emergence, 312 h; for pest or weed control at 15.625 g/ha: 15.625 g ai/ha, evaluated after 13 days (100=total damage to plant; 0=no damage to plant), read-out: Barnyardgrass damage rating; for pest or weed control at 62.5 g/ha: 62.5 g ai/ha, read-out: Barnyardgrass damage rating (100=total damage to plant; 0=no damage to plant); for pest or weed control at 62.5 g/ha / pest or weed control at 250 g/ha: evaluated after 13 days; for pest or weed control at 250 g/ha: 250 g ai/ha, read-out: damage to plant, Barnyardgrass (100=total damage to plant; 0=no damage to plant)
Summary of the method: (§2)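 Sow in soil; grow 8 d (24/16 °C, 14 h light, 65% humidity); spray 15.625/62.5/250 g/ha in acetone:water 50:50 + 0.5% Tween 20; grow on, water twice daily; score damage 0–100 at 13 d.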

[8] = test system: corn (Zea mays); assay: Test G Post-Emergence Protocol; settings: Zea mays, post-emergence, 312 h; for plant injury at 15.625 g/ha: 15.625 g ai/ha, evaluated after 13 days (100=total damage to plant; 0=no damage to plant), read-out: Corn damage rating; for plant injury at 62.5 g/ha: 62.5 g ai/ha, read-out: Corn damage rating (100=total damage to plant; 0=no damage to plant); for plant injury at 62.5 g/ha / plant injury at 250 g/ha: evaluated after 13 days; for plant injury at 250 g/ha: 250 g ai/ha, read-out: damage to plant, Corn (100=total damage to plant; 0=no damage to plant)
Summary of the method: as §2

[9] = test system: giant foxtail (Setaria faberi); assay: Test G Post-Emergence Protocol; settings: Setaria faberi, post-emergence, 312 h; for pest or weed control at 15.625 g/ha: 15.625 g ai/ha, evaluated after 13 days (100=total damage to plant; 0=no damage to plant), read-out: Foxtail, Giant damage rating; for pest or weed control at 62.5 g/ha: 62.5 g ai/ha, read-out: Foxtail, Giant damage rating (100=total damage to plant; 0=no damage to plant); for pest or weed control at 62.5 g/ha / pest or weed control at 250 g/ha: evaluated after 13 days; for pest or weed control at 250 g/ha: 250 g ai/ha, read-out: damage to plant, Foxtail, Giant (100=total damage to plant; 0=no damage to plant)
Summary of the method: as §2

[10] = test system: ivy-leaved morning glory (Ipomoea hederacea); assay: Test G Post-Emergence Protocol; settings: Ipomoea, post-emergence, 312 h; for pest or weed control at 15.625 g/ha: 15.625 g ai/ha, evaluated after 13 days (100=total damage to plant; 0=no damage to plant), read-out: Morningglory, Ivy-leaved damage rating; for pest or weed control at 62.5 g/ha: 62.5 g ai/ha, read-out: Morningglory, Ivy-leaved damage rating (100=total damage to plant; 0=no damage to plant); for pest or weed control at 62.5 g/ha / pest or weed control at 250 g/ha: evaluated after 13 days; for pest or weed control at 250 g/ha: 250 g ai/ha, read-out: damage to plant, Morningglory, Ivy-leaved (100=total damage to plant; 0=no damage to plant)
Summary of the method: as §2

[11] = test system: redroot pigweed (Amaranthus retroflexus); assay: Test G Post-Emergence Protocol; settings: Amaranthus retroflexus, post-emergence, 312 h; for pest or weed control at 15.625 g/ha: 15.625 g ai/ha, evaluated after 13 days (100=total damage to plant; 0=no damage to plant), read-out: Pigweed, Redroot damage rating; for pest or weed control at 62.5 g/ha: 62.5 g ai/ha, read-out: Pigweed, Redroot damage rating (100=total damage to plant; 0=no damage to plant); for pest or weed control at 62.5 g/ha / pest or weed control at 250 g/ha: evaluated after 13 days; for pest or weed control at 250 g/ha: 250 g ai/ha, read-out: damage to plant, Pigweed, Redroot (100=total damage to plant; 0=no damage to plant)
Summary of the method: as §2

[12] = test system: velvetleaf (Abutilon theophrasti); assay: Test G Post-Emergence Protocol; settings: Abutilon theophrasti, post-emergence, 312 h; for pest or weed control at 15.625 g/ha: 15.625 g ai/ha, evaluated after 13 days (100=total damage to plant; 0=no damage to plant), read-out: Velvetleaf damage rating; for pest or weed control at 62.5 g/ha: 62.5 g ai/ha, read-out: Velvetleaf damage rating (100=total damage to plant; 0=no damage to plant); for pest or weed control at 62.5 g/ha / pest or weed control at 250 g/ha: evaluated after 13 days; for pest or weed control at 250 g/ha: 250 g ai/ha, read-out: damage to plant, Velvetleaf (100=total damage to plant; 0=no damage to plant)
Summary of the method: as §2

Structure (SMILES)	pest or weed control at 15.625 g/ha [1]	pest or weed control at 62.5 g/ha [1]	pest or weed control at 250 g/ha [1]	plant injury at 15.625 g/ha [2]	plant injury at 62.5 g/ha [2]	plant injury at 250 g/ha [2]	pest or weed control at 15.625 g/ha [3]	pest or weed control at 62.5 g/ha [3]	pest or weed control at 250 g/ha [3]	pest or weed control at 15.625 g/ha [4]	pest or weed control at 62.5 g/ha [4]	pest or weed control at 250 g/ha [4]	pest or weed control at 15.625 g/ha [5]	pest or weed control at 62.5 g/ha [5]	pest or weed control at 250 g/ha [5]	pest or weed control at 15.625 g/ha [6]	pest or weed control at 62.5 g/ha [6]	pest or weed control at 250 g/ha [6]	pest or weed control at 15.625 g/ha [7]	pest or weed control at 62.5 g/ha [7]	also measured
Cc1c(NC(=O)[C@@H]2C(=O)N(C)C[C@H]2c2ccc(C(F)(F)F)cc2)ccnc1Cl (racemic) [Compound 1631]	0%	0%	0%	0%	10%	0%	0%	10%	70%	0%	20%	30%	0%	20%	10%	0%	0%	0%	0%	10%	pest or weed control at 250 g/ha [7]: 10%; plant injury at 15.625 g/ha [8]: 0%; plant injury at 62.5 g/ha [8]: 0%; plant injury at 250 g/ha [8]: 10%; pest or weed control at 15.625 g/ha [9]: 0%; pest or weed control at 62.5 g/ha [9]: 60%; pest or weed control at 250 g/ha [9]: 70%; pest or weed control at 15.625 g/ha [10]: 0%; pest or weed control at 62.5 g/ha [10]: 20%; pest or weed control at 250 g/ha [10]: 20%; pest or weed control at 15.625 g/ha [11]: 0%; pest or weed control at 62.5 g/ha [11]: 20%; pest or weed control at 250 g/ha [11]: 20%; pest or weed control at 15.625 g/ha [12]: 0%; pest or weed control at 62.5 g/ha [12]: 10%; pest or weed control at 250 g/ha [12]: 0%
CN1C[C@@H](c2ccc(C(F)(F)F)cc2)[C@H](C(=O)Nc2c[nH]nc2Cl)C1=O (racemic) [Compound 1633]	0%	0%	0%	0%	0%	0%	0%	0%	0%	0%	0%	0%	0%	0%	0%	0%	0%	0%	0%	0%	pest or weed control at 250 g/ha [7]: 0%; plant injury at 15.625 g/ha [8]: 0%; plant injury at 62.5 g/ha [8]: 0%; plant injury at 250 g/ha [8]: 0%; pest or weed control at 15.625 g/ha [9]: 0%; pest or weed control at 62.5 g/ha [9]: 0%; pest or weed control at 250 g/ha [9]: 0%; pest or weed control at 15.625 g/ha [10]: 0%; pest or weed control at 62.5 g/ha [10]: 0%; pest or weed control at 250 g/ha [10]: 0%; pest or weed control at 15.625 g/ha [11]: 0%; pest or weed control at 62.5 g/ha [11]: 0%; pest or weed control at 250 g/ha [11]: 0%; pest or weed control at 15.625 g/ha [12]: 0%; pest or weed control at 62.5 g/ha [12]: 0%; pest or weed control at 250 g/ha [12]: 0%
